Experimental data reported in patent publication US20200331925A1, “HETEROCYCLIC COMPOUNDS FOR THE TREATMENT OF ABNORMAL CELLULAR PROLIFERATION” (G1 Therapeutics, Inc., priority 2018, published 2020).

Experiments:
CDK4/Cyclin D1 = CDK4/Cyclin D1 (Homo sapiens, UniProt P11802); experiment: CDK4/Cyclin D1 kinase assay (Nanosyn, Caliper microfluidic); format: biochemical; conditions: 12-point dose-response, ATP at Km (200 μM), 3 hr; Table 6
Procedure: (§1) Selected compounds disclosed herein were tested in kinase assays by Nanosyn (Santa Clara, Calif.) to determine their inhibitory effect on selected CDKs. The assays were performed using microfluidic kinase detection technology (Caliper Assay Platform). The compounds were tested in 12-point dose-response format in singlicate at Kmfor ATP. Phosphoacceptor substrate peptide concentration used was 1 μM for all assays and Staurosporine was used as the reference compound for all assays. Specifics of each assay are as described below: CDK4/Cyclin D1: Enzyme concentration: 1 nM; ATP concentration: 200 μM; Incubation time: 3 hr.

CDK9/Cyclin T = CDK9/Cyclin T (Homo sapiens, UniProt P50750); experiment: CDK9/Cyclin T kinase assay (Nanosyn, Caliper microfluidic); format: biochemical; conditions: 12-point dose-response, ATP at Km (10 μM), 17 hr; Table 6
Chain of CDK9/Cyclin T (P50750 whole entry): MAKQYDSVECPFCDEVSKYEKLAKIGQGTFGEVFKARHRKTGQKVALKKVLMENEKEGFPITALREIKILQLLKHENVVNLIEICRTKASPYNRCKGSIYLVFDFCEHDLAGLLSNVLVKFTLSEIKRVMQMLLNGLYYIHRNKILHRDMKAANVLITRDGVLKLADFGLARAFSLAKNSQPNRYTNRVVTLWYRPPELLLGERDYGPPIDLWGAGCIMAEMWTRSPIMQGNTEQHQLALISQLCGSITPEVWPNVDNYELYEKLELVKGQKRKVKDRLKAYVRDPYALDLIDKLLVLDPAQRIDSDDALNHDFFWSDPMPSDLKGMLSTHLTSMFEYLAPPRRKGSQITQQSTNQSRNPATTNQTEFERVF
Chain of CDK9/Cyclin T (O60563 whole entry partner): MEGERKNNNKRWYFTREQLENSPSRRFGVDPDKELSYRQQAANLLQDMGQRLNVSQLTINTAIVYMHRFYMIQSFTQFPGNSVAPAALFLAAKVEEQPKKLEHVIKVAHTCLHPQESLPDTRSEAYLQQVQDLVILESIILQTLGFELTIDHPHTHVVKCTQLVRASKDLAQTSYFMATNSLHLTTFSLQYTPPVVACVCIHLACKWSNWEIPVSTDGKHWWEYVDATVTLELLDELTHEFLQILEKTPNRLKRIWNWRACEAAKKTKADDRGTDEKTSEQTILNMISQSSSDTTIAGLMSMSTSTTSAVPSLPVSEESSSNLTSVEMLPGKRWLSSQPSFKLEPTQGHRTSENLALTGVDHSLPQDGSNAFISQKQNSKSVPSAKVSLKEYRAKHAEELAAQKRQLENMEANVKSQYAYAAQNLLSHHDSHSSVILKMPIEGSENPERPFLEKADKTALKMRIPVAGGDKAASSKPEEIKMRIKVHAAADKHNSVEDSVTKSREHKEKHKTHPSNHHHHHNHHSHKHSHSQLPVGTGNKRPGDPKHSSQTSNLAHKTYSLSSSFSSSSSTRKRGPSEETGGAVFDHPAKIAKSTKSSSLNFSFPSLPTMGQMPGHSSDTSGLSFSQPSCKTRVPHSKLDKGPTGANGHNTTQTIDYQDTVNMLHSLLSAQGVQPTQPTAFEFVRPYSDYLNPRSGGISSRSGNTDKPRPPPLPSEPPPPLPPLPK
Procedure: as §1, with “below: […]:” for “below: CDK4/Cyclin D1:”, “concentration: 5” for “concentration: 1”, “concentration: 10” for “concentration: 200”, “time: 17” for “time: 3”

Chain of CDK4/Cyclin D1 (P11802 whole entry): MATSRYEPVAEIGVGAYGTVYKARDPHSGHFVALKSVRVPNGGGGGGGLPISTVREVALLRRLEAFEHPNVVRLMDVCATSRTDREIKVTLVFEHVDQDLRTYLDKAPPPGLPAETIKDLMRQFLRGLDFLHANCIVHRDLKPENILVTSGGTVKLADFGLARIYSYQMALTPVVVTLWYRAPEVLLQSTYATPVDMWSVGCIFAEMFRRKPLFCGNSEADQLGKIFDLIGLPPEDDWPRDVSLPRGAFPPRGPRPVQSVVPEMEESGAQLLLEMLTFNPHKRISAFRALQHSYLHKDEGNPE
Chain of CDK4/Cyclin D1 (P24385 whole entry partner): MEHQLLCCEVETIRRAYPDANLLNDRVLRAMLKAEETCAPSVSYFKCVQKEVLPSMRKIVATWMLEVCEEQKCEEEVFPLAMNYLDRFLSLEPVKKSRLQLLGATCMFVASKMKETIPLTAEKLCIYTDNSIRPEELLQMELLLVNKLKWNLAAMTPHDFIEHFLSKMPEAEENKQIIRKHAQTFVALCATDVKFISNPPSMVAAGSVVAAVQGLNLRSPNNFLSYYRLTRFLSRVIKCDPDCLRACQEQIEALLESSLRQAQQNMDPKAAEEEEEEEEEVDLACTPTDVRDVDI

Question: Which results are given for `O=C1NCC2(CCCCC2)n2c1cc1cnc(N[C@H]3CC[C@H](N4CCC(C(F)(F)F)CC4)CC3)nc12` [Compound 56, 2′-(((1r,4r)-4-(4-(trifluoromethyl)piperidin-1-yl)cyclohexyl)amino)-7′,8′-dihydro-6′H-spiro[cyclohexane-1,9′-pyrazino[1′,2′:1,5]pyrrolo[2,3-d]pyrimidin]-6′-one]?
Answer: IC50 (CDK4/Cyclin D1): 27 nM; IC50 (CDK9/Cyclin T): 4 nM

Question: How did the IC50 (CDK4/Cyclin D1) turn out when `CC(C)(C)N1CCN([C@H]2CC[C@H](Nc3ncc4cc5n(c4n3)C3(CCCCC3)CNC5=O)CC2)CC1` [Compound 57, 2′-(((1r,4r)-4-(4-(tert-butyl)piperazin-1-yl)cyclohexyl)amino)-7′,8′-dihydro-6′H-spiro[cyclohexane-1,9′-pyrazino[1′,2′:1,5]pyrrolo[2,3-d]pyrimidin]-6′-one] was run?
Answer: Its IC50 is 5 nM.

Question: And the IC50 (CDK9/Cyclin T)?
Answer: The IC50 was 3 nM.

Question: Which IC50 (CDK4/Cyclin D1) does the source give for `O=C1NCC2(CCCCC2)n2c1cc1cnc(N[C@H]3CC[C@H](N4CCN(C5CC5)CC4)CC3)nc12` [Compound 58, 2′-(((1r,4r)-4-(4-cyclopropylpiperazin-1-yl)cyclohexyl)amino)-7′,8′-dihydro-6′H-spiro[cyclohexane-1,9′-pyrazino[1′,2′:1,5]pyrrolo[2,3-d]pyrimidin]-6′-one] here?
Answer: Its IC50 is 33 nM.

Question: For `O=C1NCC2(CCCCC2)n2c1cc1cnc(N[C@H]3CC[C@H](N4CCN(C5CCCC5)CC4)CC3)nc12` [Compound 59, 2′-(((1r,4r)-4-(4-cyclopentylpiperazin-1-yl)cyclohexyl)amino)-7′,8′-dihydro-6′H-spiro[cyclohexane-1,9′-pyrazino[1′,2′:1,5]pyrrolo[2,3-d]pyrimidin]-6′-one], which IC50 (CDK4/Cyclin D1) is on record?
Answer: The IC50 was 4 nM.

Question: What about the IC50 (CDK9/Cyclin T) of the same molecule?
Answer: The IC50 was 2 nM.

Question: With `O=C1NCC2(CCCCC2)n2c1cc1cnc(N[C@H]3CC[C@H](N4CCN(c5ccc(F)cc5)CC4)CC3)nc12` [Compound 60, 2′-(((1r,4r)-4-(4-(4-fluorophenyl)piperazin-1-yl)cyclohexyl)amino)-7′,8′-dihydro-6′H-spiro[cyclohexane-1,9′-pyrazino[1′,2′:1,5]pyrrolo[2,3-d]pyrimidin]-6′-one] as the molecule, how does the IC50 (CDK4/Cyclin D1) read?
Answer: The IC50 was 13 nM.

Question: And the IC50 (CDK9/Cyclin T)?
Answer: Its IC50 is 3 nM.

Question: For `O=C1NCC2(CCCCC2)n2c1cc1cnc(N[C@H]3CC[C@H](N4CCN(CC5CCCCC5)CC4)CC3)nc12` [Compound 61, 2′-(((1r,4r)-4-(4-(cyclohexylmethyl)piperazin-1-yl)cyclohexyl)amino)-7′,8′-dihydro-6′H-spiro[cyclohexane-1,9′-pyrazino[1′,2′:1,5]pyrrolo[2,3-d]pyrimidin]-6′-one], which IC50 (CDK4/Cyclin D1) is on record?
Answer: The IC50 was 13 nM.

Question: For `O=C1NCC2(CCCCC2)n2c1cc1cnc(N[C@H]3CC[C@H](N4CCN(C(=O)C5CC5)CC4)CC3)nc12` [Compound 62, 2′-(((1r,4r)-4-(4-(cyclopropanecarbonyl)piperazin-1-yl)cyclohexyl)amino)-7′,8′-dihydro-6′H-spiro[cyclohexane-1,9′-pyrazino[1′,2′:1,5]pyrrolo[2,3-d]pyrimidin]-6′-one], which IC50 (CDK4/Cyclin D1) is on record?
Answer: Its IC50 is 20 nM.
